Assay results from patent publication US20240082340A1 (Biohaven Therapeutics Ltd., priority 2021, published 2024).

How the values were obtained:
[1] = taken with meals; cited from earlier work
[2] = test system: patients diagnosed with Alzheimer's disease of mild-to-moderate severity; assay: T2 Protect AD trial: volumetric MRI hippocampal volume (Quarc); assay type: in vivo, human; conditions: for Hippocampal Volume Change, Model Estimates, LSMean (SE) Difference: Week 48, placebo vs troriluzole
Description: vMRI allows the in vivo assessment of brain structure volume and provides a measure of atrophy rate. […] Atrophy of the medial temporal lobe, including hippocampus and entorhinal cortex, has long been described in vMRI studies of AD. Hippocampal volume derived from MRI correlates with histological hippocampal volume and degree of neuronal loss and AD pathology, and entorhinal cortical thickness change appears to be an early and sensitive indicator of neurodegeneration associated with AD (Holland et al., 2009; Jack et al., 2004).
Participants will undergo vMRI scans of the brain at screening, week 24 and week 48 in order to assess for changes in brain volumes that may be associated with clinical change due to treatment with BHV-4157.
Volumetric MRI scans will use the same imaging protocol, which will include a localizer scan, a 3D T1-weighted sagittal acquisition (MPRAGE or IR-SPGR), a T2-weighted FLAIR axial acquisition, a T2* gradient recalled echo axial acquisition for magnetic susceptibility, and a diffusion weighted axial acquisition to assess for restricted diffusion.
Images will be checked for image quality and adherence to scanning protocols. 3D T1-weighted datasets passing quality checks will be corrected for spatial distortion and for intensity variation. Screening and follow-up datasets for each participant will be spatially registered to one another using rigid-body registration followed by nonlinear registration and neuroanatomic parcellation to quantify whole-brain and subregional volumetric change on a patient-by patient basis.
Whole brain volume (WBV, excluding cerebellum), bilateral ventricular volume and bilateral hippocampal volume will be measured. Quantitative anatomical regional change (Quarc) will be used as the computational MR image processing application. Detail for the statistical computations is given in the Statistical Analytical Plan (SAP).
(§1) The T2 Protect AD trial has been conducted, which is a Phase 2/3, randomized, double-blind, placebo-controlled study evaluating the efficacy and safety of troriluzole in patients diagnosed with Alzheimer's disease of mild-to-moderate severity (Mini-Mental State Examination [MMSE] scores of 14-24; mild: 20-24, moderate: 14-19).

[3] = test system: patients diagnosed with Alzheimer's disease of mild-to-moderate severity; assay: T2 Protect AD trial: ADAS-Cog 11; assay type: in vivo, human; conditions: for ADAS-Cog Total Score, Model Estimates, LSMean (SE): change from baseline; for ADAS-Cog Total Score, Model Estimates, LSMean (SE) Difference: placebo vs troriluzole
Description: (§2) The ADAS-Cog 11 evaluates memory (word recall, word recognition), reasoning (following commands), language (naming, comprehension), orientation, ideational praxis (placing a letter in an envelope) and constructional praxis (copying geometric designs). Ratings of spoken language, language comprehension, word finding difficulty, and ability to remember test instructions are also obtained. The test is scored in terms of errors, with higher scores reflecting poorer performance and greater impairment. Scores can range from 0 (best) to 70 (worse).
The primary efficacy endpoint is the within-participant change in ADAS-Cog 11 from baseline to week 48, compared between the treatment group and the placebo group.
as §2, with “11 (Rosen, Mohs, & Davis, 1984) is a structured scale that” for “11”
as §1

[4] = test system: patients diagnosed with Alzheimer's disease of mild-to-moderate severity; assay: T2 Protect AD trial: Neuropsychiatric Inventory (NPI); assay type: in vivo, human; conditions: for NPI score LS mean change, difference versus placebo: after 48 weeks, troriluzole minus placebo
Description: The NPI is a well-validated, reliable, multi-item instrument to assess psychopathology in AD dementia based on the results of an interview with the study partner (Cummings, 1997). The NPI evaluates both the frequency and severity of 10 neuropsychiatric features, including delusions, hallucinations, agitation/aggression, dysphoria, anxiety, euphoria, apathy, disinhibition, irritability and lability, and aberrant motor behavior, as well as evaluates sleep and appetite/eating disorders. Frequency assessments range from 1 (occasionally, less than once per week) to 4 (very frequently, once or more per day or continuously). Severity assessments range from 1 (mild) to 3 (severe). The score for each subscale is the product of severity and frequency and the total score is the sum of all subscales.
as §1

[5] = test system: patients diagnosed with Alzheimer's disease of mild-to-moderate severity; assay: T2 Protect AD trial: CDR-Sum of Boxes; assay type: in vivo, human; conditions: Week 48; for CDR01-Sum of Boxes, Model Estimates, LSMean (SE) Difference: placebo vs troriluzole
Description: The CDR-SOB (Hughes, Berg, Danziger, Coben, & Martin, 1982) is a validated composite rating of cognition and everyday functioning used in longitudinal AD research which incorporates both informant input and direct assessment of performance. It assesses through semi structured interview 3 cognitive domains including memory, orientation, and judgement/problem solving and 3 everyday functional domains including community affairs, home and hobbies and personal care. There are 5 levels of impairment from none CDR=0 to severe CDR=3. The individual domain scores are added to create a sum of the box scores.
as §1

[6] = after 48 weeks, mild AD, placebo minus troriluzole
[7] = Week 48, mild-to-moderate AD, 280 mg once daily

## Nc1nc2ccc(OC(F)(F)F)cc2s1 [Riluzole, riluzole]
[1]
  food effect on exposure: reduced exposure when taken with meals

## CN(CC(=O)Nc1nc2ccc(OC(F)(F)F)cc2s1)C(=O)CNC(=O)CN [Troriluzole, troriluzole]
[2]; mild AD patients only
  Hippocampal Volume Change, Model Estimates, LSMean (SE) Difference: −0.5 (0.38)
[2]; mild-to-moderate AD
  Hippocampal Volume Change, Model Estimates, LSMean (SE) Difference: 0.0 (0.26)
[2]; [6]
  hippocampal volume LS mean percent deformation change, difference versus placebo: −0.5%
[2]; overall population
  key secondary measure of hippocampal volume assessed by MRI, versus placebo: did not differentiate from placebo
[3]; Week 48, mild AD patients only
  ADAS-Cog Total Score, Model Estimates, LSMean (SE): 4.2
  ADAS-Cog Total Score, Change from Baseline, Mean (SD): 3.9
  ADAS-Cog Total Score, Model Estimates, LSMean (SE) Difference: 0.7 (1.02)
[3]; [7]
  ADAS-Cog Total Score, Model Estimates, LSMean (SE): 6.7 (0.70)
  ADAS-Cog Total Score, Change from Baseline, Mean (SD): 5.8 (7.40)
  ADAS-Cog Total Score, Change from Baseline, Median: 6.0
[3]; Week 48, mild AD patients only, 280 mg once daily
  ADAS-Cog Total Score, Analysis Value, Mean (SD): 26.2
[3]; Week 48, mild-to-moderate AD
  outcome on co-primary endpoint ADAS-cog: did not meet the study's pre-specified co-primary endpoints
  ADAS-Cog Total Score, Model Estimates, LSMean (SE) Difference: 0.0 (0.93)
[3]; [6]
  ADAS-Cog11 score LS mean change, difference versus placebo: 0.7 points
[4]; Week 48, only mild AD, only moderate AD, only ApoE4 positive, only ApoE4 negative patients
  NPI across subgroups versus placebo: numerical differences of a potential benefit
[4]; mild AD
  NPI score LS mean change, difference versus placebo: −2.1 points
[4]; mild-to-moderate AD
  NPI score LS mean change, difference versus placebo: −1.5 points
[5]; mild-to-moderate AD
  outcome on co-primary endpoint CDR-SB: did not meet the study's pre-specified co-primary endpoints
  CDR01-Sum of Boxes, Model Estimates, LSMean (SE) Difference: −0.2 (0.28)
[5]; mild AD patients only
  CDR01-Sum of Boxes, Model Estimates, LSMean (SE) Difference: −0.3 (0.40)
